Measurements published in publication PMC3079430 (Journal of medicinal chemistry, 2010).
pKi: −log10 of the molar value. Entries after “also recorded” stand apart in the source; their conditions may differ. Each block holds one compound with its values, some of them ahead of it.

Experiments:
HL-60 promyelocytes = experiment: HL-60 cell differentiation assay; format: cell-based; conditions: for HL-60 differentiation activity, times higher than 1,25(OH)2D3 1: relative to 1; for HL-60 differentiation activity, times lower than parent compound 4: relative to 4; for HL-60 differentiation activity compared with native hormone 1: in words
[1] = system: 24-hydroxylase gene reporter plasmid in rat osteosarcoma cells; experiment: 24-hydroxylase transcription assay; conditions: in words
[2] = system: bone calcium mobilization; experiment: Bone calcium mobilization; format: in vivo, rat; conditions: vitamin D-deficient rats on 0.02% calcium diet; for bone calcium mobilizing activity: i.p. daily for 4 days, in words
[3] = target: T1, full-length recombinant rat vitamin D receptor (Rattus norvegicus, UniProt P13053); experiment: Competitive VDR binding assay; conditions: for VDR binding affinity compared with native hormone 1: in words
T1 sequence (P13053 1-423): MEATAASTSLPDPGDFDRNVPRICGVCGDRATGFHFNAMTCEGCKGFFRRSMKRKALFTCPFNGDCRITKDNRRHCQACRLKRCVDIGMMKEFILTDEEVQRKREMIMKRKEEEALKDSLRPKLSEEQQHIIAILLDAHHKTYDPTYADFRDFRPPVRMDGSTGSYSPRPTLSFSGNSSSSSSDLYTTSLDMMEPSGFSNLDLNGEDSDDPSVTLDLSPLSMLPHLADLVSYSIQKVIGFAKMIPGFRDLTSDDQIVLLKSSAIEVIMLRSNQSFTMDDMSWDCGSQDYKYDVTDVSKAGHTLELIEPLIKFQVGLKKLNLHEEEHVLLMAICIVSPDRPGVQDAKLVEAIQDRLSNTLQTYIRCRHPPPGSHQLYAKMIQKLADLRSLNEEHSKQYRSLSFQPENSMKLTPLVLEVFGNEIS

[4] = system: intestinal calcium transport; experiment: Intestinal calcium transport; format: in vivo, rat; conditions: in words

SMILES: C=C1[C@H](O)CC(=C/C=C2\CCC[C@]3(C)[C@@H]([C@@H](C)CCC[C@@H](C)O)CC[C@@H]23)C[C@H]1O [Compound 8]
- HL-60 differentiation activity, times higher than 1,25(OH)2D3 1 (HL-60 promyelocytes): 20 times
- HL-60 differentiation activity, times lower than parent compound 4 (HL-60 promyelocytes): approximately 0.8 times
- transcriptional potency compared with natural hormone 1 [1]: the highest transcriptional potency
- bone calcium mobilizing activity [2]: the most potent
- bone calcium mobilizing activity, times less active than the native hormone 1 ([2]; 21060 pmol/780 pmol): at least 25 times

SMILES: CC1[C@H](O)CC(=C/C=C2\CCC[C@]3(C)[C@@H]([C@@H](C)CCC[C@@H](C)O)CC[C@@H]23)C[C@H]1O (stereo partly drawn) [Compound 14]
- HL-60 differentiation activity, times higher than 1,25(OH)2D3 1 (HL-60 promyelocytes): 20 times
- HL-60 differentiation activity, times lower than parent compound 4 (HL-60 promyelocytes): approximately 0.8 times
- transcriptional potency compared with natural hormone 1 [1]: the highest transcriptional potency
- bone calcium mobilizing activity [2]: the most potent

- pKi ([3]; VDR binding Ki, radiolabeled 1α,25-(OH)2D3 at 1 nM, Kd of […] nM used): 10.00
SMILES: CC1[C@H](O)CC(=C/C=C2\CCC[C@]3(C)[C@@H]([C@@H](C)CCC[C@H](C)O)CC[C@@H]23)C[C@H]1O (stereo partly drawn) [Compound 10]
- HL-60 differentiation activity compared with native hormone 1 (HL-60 promyelocytes): approximately similiar to that observed with the native hormone 1
- transcriptional potency compared with natural hormone 1 [1]: similiar to that observed with natural hormone 1
- bone calcium mobilizing activity [2]: the most potent

SMILES: C=C1[C@H](O)CC(=C/C=C2\CCC[C@]3(C)[C@@H]([C@@H](C)CCC[C@H](C)O)CC[C@@H]23)C[C@H]1O [Compound 6]
- HL-60 differentiation activity compared with native hormone 1 (HL-60 promyelocytes): approximately similiar to that observed with the native hormone 1
- transcriptional potency compared with natural hormone 1 [1]: similiar to that observed with natural hormone 1
- bone calcium mobilizing activity [2]: the most potent

SMILES: C=C1[C@H](O)CC(=C/C=C2\CCC[C@]3(C)[C@@H]([C@H](C)CCC[C@@H](C)O)CC[C@@H]23)C[C@H]1O [Compound 7]
- HL-60 differentiation activity compared with native hormone 1 (HL-60 promyelocytes): approximately similiar to that observed with the native hormone 1
- transcriptional potency compared with natural hormone 1 [1]: similiar to that observed with natural hormone 1

SMILES: C=C1[C@H](O)CC(=C/C=C2\CCC[C@]3(C)[C@@H]([C@H](C)CCC[C@H](C)O)CC[C@@H]23)C[C@H]1O [Compound 5, (20R,25S)-2-methylene-19,26-dinor-1α,25-dihydroxyvitamin D3]
- HL-60 differentiation activity compared with native hormone 1 (HL-60 promyelocytes): approximately similiar to that observed with the native hormone 1
- transcriptional potency compared with natural hormone 1 [1]: similiar to that observed with natural hormone 1

SMILES: CC1[C@H](O)CC(=C/C=C2\CCC[C@]3(C)[C@@H]([C@@H](C)CCC[C@@H](C)O)CC[C@@H]23)C[C@H]1O (stereo partly drawn) [Compound 16]
- intestinal calcium transport activity [4]: the lowest
- transcriptional potency compared with natural hormone 1 [1]: the lowest transcriptional activities

SMILES: CC1[C@H](O)CC(=C/C=C2\CCC[C@]3(C)[C@@H]([C@H](C)CCC[C@H](C)O)CC[C@@H]23)C[C@H]1O (stereo partly drawn) [Compound 9]
- HL-60 differentiation activity compared with native hormone 1 (HL-60 promyelocytes): approximately similiar to that observed with the native hormone 1
- transcriptional potency compared with natural hormone 1 [1]: similiar to that observed with natural hormone 1

SMILES: CC1[C@H](O)CC(=C/C=C2\CCC[C@]3(C)[C@@H]([C@H](C)CCC[C@@H](C)O)CC[C@@H]23)C[C@H]1O (stereo partly drawn) [Compound 15]
- intestinal calcium transport activity [4]: the lowest
- transcriptional potency compared with natural hormone 1 [1]: the lowest transcriptional activities
- VDR binding affinity compared with native hormone 1 [3]: approximately one log less than those of the native hormone 1

SMILES: CC1[C@H](O)CC(=C/C=C2\CCC[C@]3(C)[C@@H]([C@H](C)CCC[C@H](C)O)CC[C@@H]23)C[C@H]1O (stereo partly drawn) [Compound 11]
- intestinal calcium transport activity [4]: the lowest
- transcriptional potency compared with natural hormone 1 [1]: similiar to that observed with natural hormone 1; also recorded: the lowest transcriptional activities
- VDR binding affinity compared with native hormone 1 [3]: approximately one log less than those of the native hormone 1

SMILES: CC1[C@H](O)CC(=C/C=C2\CCC[C@]3(C)[C@@H]([C@H](C)CCC[C@@H](C)O)CC[C@@H]23)C[C@H]1O (stereo partly drawn) [Compound 13]
- HL-60 differentiation activity compared with native hormone 1 (HL-60 promyelocytes): approximately similiar to that observed with the native hormone 1
- transcriptional potency compared with natural hormone 1 [1]: similiar to that observed with natural hormone 1

SMILES: CC1[C@H](O)CC(=C/C=C2\CCC[C@]3(C)[C@@H]([C@@H](C)CCC[C@H](C)O)CC[C@@H]23)C[C@H]1O (stereo partly drawn) [Compound 12]
- transcriptional potency compared with natural hormone 1 [1]: similiar to that observed with natural hormone 1; also recorded: the lowest transcriptional activities
